These results are taken from US20120238105A1, “FORMULATIONS FOR THE PRODUCTION OF ELECTRONIC DEVICES” (Merck Patent GmbH, priority 2009, published 2012).

The series is described as follows: solubility of matrix compounds for producing devices from solution. It counts as physicochemical. The conditions noted are these: compounds dissolved in toluene or chlorobenzene for spin coating of the emission layer (matrix with 5% by weight emitter). The protocol:
Materials according to the invention are used from solution, where they result in simple devices having nevertheless good properties. The production of such components is based on the production of polymeric light-emitting diodes (PLEDs), which has already been described many times in the literature (for example in WO 2004/037887 A2). In the present case, the compounds according to the invention are dissolved in toluene or chlorobenzene. The concentration employed in the examples given here is 20% by weight of the emitter (T-1 or compound 18) and 80% by weight of the matrix materials (compounds 5 to 17). The typical solids content of such solutions is between 16 and 25 g/l if, as here, the typical layer thickness of 80 nm for a device is to be achieved by means of spin coating.
The concentration employed in the examples given here is 5% by weight of the emitter (SEB-095, Merck) and 95% by weight of the matrix materials (compounds 28 and 29). The typical solids content of such solutions is […] if, as here, the typical layer thickness of 50 nm for a device is to be achieved by means of spin coating.

Turning to `c1ccc(-c2c3ccccc3c(-c3cccc4c3ccc3cc5ccccc5cc34)c3ccccc23)cc1` [Compound 25], the solubility entry is recorded as “poor solubility”.

As for `c1ccc(-c2cccc(-c3c4ccccc4c(-c4cccc5c4ccc4cc6ccccc6cc45)c4ccccc34)c2)cc1` [Compound 27], the solubility result is given as “poor solubility”.

For `c1ccc(-c2cc(-c3ccccc3)cc(-c3c4ccccc4c(-c4cccc5c4ccc4cc6ccccc6cc45)c4ccccc34)c2)cc1` [Compound 28], the solubility result is listed as “improved solubility”.

With `c1ccc(-c2cc(-c3ccccc3)cc(-c3cccc(-c4c5ccccc5c(-c5cccc6c5ccc5cc7ccccc7cc56)c5ccccc45)c3)c2)cc1` [Compound 29], the solubility result is recorded as “improved solubility”.
